Source: ChEMBL document CHEMBL5465560, “Selectivity Literature for EUbOPEN Chemogenomic Library” (2024)
Values belong to the compound of their own block, whether it stands above or below them.

How the values were obtained:
[1] = target: T1, Ephrin type-B receptor 3 (Homo sapiens) (UniProt P54753); assay: Selectivity interaction (KinomeScan (DiscoverX)) EUB0000666a EPHB3; conditions: at 10 µM
T1 sequence (whole entry): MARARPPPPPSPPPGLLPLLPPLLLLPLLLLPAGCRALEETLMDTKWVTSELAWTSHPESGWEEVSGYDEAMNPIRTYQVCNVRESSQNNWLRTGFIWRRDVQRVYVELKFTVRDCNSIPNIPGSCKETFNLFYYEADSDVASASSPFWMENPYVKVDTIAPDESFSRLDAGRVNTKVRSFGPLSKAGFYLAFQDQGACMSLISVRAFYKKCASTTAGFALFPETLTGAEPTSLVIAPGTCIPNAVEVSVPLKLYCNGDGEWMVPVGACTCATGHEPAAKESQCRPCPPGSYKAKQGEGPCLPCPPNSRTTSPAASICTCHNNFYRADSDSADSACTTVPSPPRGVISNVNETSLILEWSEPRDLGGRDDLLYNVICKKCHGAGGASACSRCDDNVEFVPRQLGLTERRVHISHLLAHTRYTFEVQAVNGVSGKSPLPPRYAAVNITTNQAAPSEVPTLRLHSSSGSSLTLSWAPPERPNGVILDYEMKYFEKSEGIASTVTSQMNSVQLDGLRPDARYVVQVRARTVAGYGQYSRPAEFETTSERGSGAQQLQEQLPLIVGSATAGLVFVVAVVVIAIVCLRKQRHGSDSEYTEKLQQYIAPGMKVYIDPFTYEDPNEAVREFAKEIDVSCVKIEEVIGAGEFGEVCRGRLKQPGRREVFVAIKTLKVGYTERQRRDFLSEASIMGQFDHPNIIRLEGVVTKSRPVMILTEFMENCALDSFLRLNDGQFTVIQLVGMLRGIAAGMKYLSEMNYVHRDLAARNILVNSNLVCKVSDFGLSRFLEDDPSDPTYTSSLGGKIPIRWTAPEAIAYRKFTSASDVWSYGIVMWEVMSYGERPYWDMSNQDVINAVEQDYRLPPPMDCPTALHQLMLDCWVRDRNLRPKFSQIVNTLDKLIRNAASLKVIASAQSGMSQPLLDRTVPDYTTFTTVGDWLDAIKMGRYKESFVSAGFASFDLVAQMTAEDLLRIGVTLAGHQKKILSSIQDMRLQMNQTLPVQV

[2] = target: T2, Serine/threonine-protein kinase ICK (Homo sapiens) (UniProt Q9UPZ9); assay: Selectivity interaction (KinomeScan (DiscoverX)) EUB0000666a ICK; conditions: at 10 µM
T2 sequence (whole entry): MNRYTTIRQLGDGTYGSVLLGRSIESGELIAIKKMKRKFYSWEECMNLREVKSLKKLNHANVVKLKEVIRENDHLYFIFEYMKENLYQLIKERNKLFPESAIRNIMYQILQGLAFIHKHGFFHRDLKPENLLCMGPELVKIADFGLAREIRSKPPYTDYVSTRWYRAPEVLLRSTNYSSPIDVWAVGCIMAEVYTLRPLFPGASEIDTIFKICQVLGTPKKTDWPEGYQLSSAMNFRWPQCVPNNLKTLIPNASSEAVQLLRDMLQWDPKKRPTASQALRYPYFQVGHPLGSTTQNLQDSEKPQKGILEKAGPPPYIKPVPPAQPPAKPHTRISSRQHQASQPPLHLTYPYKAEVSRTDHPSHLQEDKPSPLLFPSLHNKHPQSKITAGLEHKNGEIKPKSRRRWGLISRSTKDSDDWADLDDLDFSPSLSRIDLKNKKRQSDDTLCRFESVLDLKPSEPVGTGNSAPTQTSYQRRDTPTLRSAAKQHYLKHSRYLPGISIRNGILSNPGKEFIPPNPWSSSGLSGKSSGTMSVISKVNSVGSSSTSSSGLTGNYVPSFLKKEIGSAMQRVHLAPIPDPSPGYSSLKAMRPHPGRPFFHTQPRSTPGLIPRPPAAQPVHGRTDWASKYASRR

[3] = target: Serine/threonine-protein kinase PLK1 (Homo sapiens, UniProt P53350); assay: Selectivity interaction (Kinase panel (literature)) EUB0001199aCl PLK1; conditions: at 1 µM
Sequence of Serine/threonine-protein kinase PLK1 (P53350 whole entry): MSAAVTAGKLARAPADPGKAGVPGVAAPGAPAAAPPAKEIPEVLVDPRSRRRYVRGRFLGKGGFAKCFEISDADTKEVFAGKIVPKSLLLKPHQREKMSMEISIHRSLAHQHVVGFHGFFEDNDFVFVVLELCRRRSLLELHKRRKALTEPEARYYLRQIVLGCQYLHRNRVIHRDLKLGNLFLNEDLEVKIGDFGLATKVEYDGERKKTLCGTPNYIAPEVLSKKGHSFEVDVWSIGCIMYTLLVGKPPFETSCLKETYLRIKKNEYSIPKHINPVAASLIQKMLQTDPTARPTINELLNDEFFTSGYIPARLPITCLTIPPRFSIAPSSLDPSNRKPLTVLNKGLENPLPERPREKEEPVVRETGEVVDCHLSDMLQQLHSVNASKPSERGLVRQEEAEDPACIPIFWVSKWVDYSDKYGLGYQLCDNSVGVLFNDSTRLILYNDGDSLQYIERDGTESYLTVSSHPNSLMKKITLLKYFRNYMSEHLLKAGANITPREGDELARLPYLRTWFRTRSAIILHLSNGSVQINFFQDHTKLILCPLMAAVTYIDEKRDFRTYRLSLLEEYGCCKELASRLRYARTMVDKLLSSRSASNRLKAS

[4] = target: Atypical kinase COQ8A, mitochondrial (Homo sapiens, UniProt Q8NI60); assay: Selectivity interaction (KinomeScan (DiscoverX)) EUB0000607a ADCK3; conditions: at 10 µM
Sequence of Atypical kinase COQ8A, mitochondrial (Q8NI60 163-647 limits assumed): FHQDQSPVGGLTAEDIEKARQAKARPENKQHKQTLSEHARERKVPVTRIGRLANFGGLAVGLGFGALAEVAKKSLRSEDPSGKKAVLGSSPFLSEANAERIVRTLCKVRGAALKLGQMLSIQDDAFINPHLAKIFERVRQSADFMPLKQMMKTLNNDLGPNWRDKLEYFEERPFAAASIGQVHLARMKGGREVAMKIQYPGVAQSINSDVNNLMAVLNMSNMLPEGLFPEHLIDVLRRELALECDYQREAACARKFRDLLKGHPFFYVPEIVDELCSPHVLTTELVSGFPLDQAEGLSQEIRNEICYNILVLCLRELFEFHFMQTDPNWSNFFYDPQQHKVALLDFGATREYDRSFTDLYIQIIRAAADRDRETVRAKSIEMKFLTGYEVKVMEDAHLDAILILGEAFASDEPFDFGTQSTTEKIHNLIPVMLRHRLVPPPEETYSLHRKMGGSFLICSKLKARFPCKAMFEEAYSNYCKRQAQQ

[5] = target: Mitogen-activated protein kinase 14 (Homo sapiens, UniProt Q16539); assay: Selectivity interaction (ProQinase) EUB0000171b MAPK14
Sequence of Mitogen-activated protein kinase 14 (Q16539 whole entry): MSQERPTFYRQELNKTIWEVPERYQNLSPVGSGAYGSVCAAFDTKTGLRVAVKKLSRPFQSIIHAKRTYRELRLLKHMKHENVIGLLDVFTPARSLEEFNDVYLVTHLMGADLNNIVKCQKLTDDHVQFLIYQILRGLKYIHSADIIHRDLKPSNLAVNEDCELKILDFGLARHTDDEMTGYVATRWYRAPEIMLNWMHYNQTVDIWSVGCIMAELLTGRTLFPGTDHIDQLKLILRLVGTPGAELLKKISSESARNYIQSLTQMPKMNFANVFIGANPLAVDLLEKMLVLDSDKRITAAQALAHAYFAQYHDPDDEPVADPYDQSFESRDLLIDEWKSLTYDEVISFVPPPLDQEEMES

[6] = target: Serine/threonine-protein kinase tousled-like 2 (Homo sapiens) (UniProt Q86UE8); assay: Selectivity interaction (Ambit KINOMEscan and KiNATiv profiling in Jurkat cells) EUB0000090b TLK2; assay type: cell-based; conditions: at 1 µM
[7] = target: Glycogen synthase kinase-3 beta (Homo sapiens, UniProt P49841); assay: Selectivity interaction (Ambit KINOMEscan and KiNATiv profiling in Jurkat cells) EUB0000090b GSK3B; assay type: cell-based; conditions: at 1 µM
Sequence of Glycogen synthase kinase-3 beta (P49841 whole entry, looked up): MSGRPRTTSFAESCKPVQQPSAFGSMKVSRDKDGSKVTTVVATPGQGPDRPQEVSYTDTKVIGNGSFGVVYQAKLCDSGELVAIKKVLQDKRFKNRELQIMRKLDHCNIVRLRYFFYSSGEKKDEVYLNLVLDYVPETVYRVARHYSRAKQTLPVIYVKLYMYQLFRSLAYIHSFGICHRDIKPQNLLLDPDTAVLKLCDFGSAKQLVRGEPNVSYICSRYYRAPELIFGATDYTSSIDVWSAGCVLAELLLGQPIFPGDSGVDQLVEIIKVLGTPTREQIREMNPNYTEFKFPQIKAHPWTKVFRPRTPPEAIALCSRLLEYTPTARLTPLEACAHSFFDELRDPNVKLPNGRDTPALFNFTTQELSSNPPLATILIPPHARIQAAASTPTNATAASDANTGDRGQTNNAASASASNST

[8] = target: Focal adhesion kinase 1 (Homo sapiens, UniProt Q05397); assay: Selectivity interaction (KinomeScan (DiscoverX)) EUB0000655a PTK2; conditions: at 10 µM
Sequence of Focal adhesion kinase 1 (Q05397 2-1052 limits assumed): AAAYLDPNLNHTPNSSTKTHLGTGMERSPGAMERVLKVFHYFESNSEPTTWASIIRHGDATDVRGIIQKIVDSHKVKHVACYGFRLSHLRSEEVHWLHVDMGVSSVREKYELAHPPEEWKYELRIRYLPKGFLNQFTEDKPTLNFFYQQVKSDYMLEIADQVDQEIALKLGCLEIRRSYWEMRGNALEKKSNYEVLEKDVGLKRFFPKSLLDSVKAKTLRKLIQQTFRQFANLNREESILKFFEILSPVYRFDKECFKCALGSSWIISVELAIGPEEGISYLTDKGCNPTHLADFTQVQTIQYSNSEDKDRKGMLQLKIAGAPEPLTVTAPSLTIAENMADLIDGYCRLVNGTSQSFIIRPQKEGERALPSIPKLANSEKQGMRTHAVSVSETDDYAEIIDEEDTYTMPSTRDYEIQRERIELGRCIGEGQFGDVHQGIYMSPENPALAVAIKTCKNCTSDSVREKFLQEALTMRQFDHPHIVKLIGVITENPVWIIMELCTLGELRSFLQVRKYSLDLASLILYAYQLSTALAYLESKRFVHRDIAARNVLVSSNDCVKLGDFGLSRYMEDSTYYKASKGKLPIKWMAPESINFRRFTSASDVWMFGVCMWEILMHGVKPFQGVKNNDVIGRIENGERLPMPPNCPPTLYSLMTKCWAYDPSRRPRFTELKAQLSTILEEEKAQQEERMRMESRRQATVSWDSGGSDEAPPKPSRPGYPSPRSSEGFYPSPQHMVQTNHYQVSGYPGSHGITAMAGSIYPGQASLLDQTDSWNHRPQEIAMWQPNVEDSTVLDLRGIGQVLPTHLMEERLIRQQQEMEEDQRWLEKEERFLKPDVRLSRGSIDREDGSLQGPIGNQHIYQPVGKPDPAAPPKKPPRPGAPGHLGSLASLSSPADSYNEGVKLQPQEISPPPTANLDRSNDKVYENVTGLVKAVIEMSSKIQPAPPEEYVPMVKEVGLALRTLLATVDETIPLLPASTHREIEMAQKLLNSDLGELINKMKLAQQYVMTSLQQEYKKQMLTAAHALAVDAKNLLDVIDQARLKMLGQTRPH

[9] = target: T3, Mitogen-activated protein kinase kinase kinase 7 (Homo sapiens) (UniProt O43318); assay: Selectivity interaction (Kinase panel (KiNativ target engagement assay in Jurkat cells)) EUB0001635a MAP3K7; assay type: cell-based; conditions: Selectivity number of off-targets 0.0, Selectivity number of targets 233.0, Source Knowledge https://www.sciencedirect.com/science/article/pii/S2451945619300674?via%3Dihub, at 1 µM
T3 sequence (whole entry): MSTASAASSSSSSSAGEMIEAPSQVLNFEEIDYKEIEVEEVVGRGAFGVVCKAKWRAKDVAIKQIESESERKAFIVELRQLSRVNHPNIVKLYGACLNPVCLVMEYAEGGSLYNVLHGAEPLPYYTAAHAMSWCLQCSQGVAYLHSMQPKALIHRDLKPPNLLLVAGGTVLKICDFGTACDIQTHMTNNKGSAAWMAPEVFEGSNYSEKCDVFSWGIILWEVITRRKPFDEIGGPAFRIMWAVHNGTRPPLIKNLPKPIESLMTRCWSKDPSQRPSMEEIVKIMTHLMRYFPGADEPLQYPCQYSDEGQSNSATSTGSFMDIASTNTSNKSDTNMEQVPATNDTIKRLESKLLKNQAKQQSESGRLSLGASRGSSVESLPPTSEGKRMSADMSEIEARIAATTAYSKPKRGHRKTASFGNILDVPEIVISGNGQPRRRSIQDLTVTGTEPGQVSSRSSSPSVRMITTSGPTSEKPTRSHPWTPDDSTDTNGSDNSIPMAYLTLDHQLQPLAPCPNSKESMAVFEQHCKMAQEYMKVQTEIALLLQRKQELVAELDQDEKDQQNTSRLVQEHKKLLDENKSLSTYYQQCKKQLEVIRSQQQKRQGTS

[10] = target: Receptor tyrosine-protein kinase erbB-2 (Homo sapiens, UniProt P04626); conditions: at 10 µM
Sequence of Receptor tyrosine-protein kinase erbB-2 (P04626 whole entry): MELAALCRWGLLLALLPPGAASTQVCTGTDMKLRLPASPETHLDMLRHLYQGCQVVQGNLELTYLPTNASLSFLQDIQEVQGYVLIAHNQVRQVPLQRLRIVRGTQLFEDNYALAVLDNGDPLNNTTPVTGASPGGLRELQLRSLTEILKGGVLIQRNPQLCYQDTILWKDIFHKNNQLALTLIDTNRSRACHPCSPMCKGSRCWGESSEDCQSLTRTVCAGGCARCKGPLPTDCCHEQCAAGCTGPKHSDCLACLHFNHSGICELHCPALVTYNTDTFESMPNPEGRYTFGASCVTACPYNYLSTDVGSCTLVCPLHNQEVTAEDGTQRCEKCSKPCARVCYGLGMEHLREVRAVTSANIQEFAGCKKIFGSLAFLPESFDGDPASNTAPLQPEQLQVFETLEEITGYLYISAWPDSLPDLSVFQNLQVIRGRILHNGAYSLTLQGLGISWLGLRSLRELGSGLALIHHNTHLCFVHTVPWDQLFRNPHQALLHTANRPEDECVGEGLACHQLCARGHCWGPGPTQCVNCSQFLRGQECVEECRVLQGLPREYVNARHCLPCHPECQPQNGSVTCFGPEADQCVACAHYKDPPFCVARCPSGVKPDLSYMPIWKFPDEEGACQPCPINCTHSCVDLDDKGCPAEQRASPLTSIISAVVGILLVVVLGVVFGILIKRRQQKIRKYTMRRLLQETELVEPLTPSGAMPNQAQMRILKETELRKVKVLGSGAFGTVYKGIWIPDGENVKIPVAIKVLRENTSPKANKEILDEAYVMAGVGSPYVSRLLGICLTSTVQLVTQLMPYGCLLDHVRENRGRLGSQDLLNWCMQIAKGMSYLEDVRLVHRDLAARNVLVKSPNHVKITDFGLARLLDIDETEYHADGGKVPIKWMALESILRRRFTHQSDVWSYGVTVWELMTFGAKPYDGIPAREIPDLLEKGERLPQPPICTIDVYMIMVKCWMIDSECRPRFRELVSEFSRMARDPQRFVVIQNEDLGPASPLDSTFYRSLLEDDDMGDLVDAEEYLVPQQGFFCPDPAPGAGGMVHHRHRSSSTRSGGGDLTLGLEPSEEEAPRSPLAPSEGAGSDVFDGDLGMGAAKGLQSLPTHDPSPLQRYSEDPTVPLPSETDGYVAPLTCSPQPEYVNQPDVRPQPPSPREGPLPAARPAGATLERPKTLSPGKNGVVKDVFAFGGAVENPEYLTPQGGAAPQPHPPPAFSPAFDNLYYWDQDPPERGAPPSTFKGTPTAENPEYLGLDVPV

[11] = target: Serine/threonine-protein kinase Nek7 (Homo sapiens) (UniProt Q8TDX7); assay: Selectivity interaction (KinomeScan (DiscoverX)) EUB0000618a NEK7; conditions: at 10 µM
Sequence of Serine/threonine-protein kinase Nek7 (Homo sapiens) (Q8TDX7 whole entry, looked up): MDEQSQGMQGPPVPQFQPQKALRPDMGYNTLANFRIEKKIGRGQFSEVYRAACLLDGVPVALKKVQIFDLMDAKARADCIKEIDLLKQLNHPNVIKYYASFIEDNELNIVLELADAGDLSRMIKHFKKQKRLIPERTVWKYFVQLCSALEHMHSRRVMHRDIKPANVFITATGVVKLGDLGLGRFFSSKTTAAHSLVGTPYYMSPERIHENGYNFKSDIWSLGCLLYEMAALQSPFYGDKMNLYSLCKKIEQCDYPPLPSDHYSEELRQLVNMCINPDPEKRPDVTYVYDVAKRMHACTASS

SMILES: O=C(NOC[C@H](O)CO)c1ccc(F)c(F)c1Nc1ccc(I)cc1F
% of control [1]: 89%
% of control [2]: 84%

% of inhibition [3]: -3%
SMILES: CN1Cc2nccc(-c3cn(C)nc3-c3ccc(F)cc3)c2C1=O

SMILES: CNC(=O)Nc1ccc(-c2nc(N3CC4CCC(C3)O4)c3cnn(C4CCC5(CC4)OCCO5)c3n2)cc1
% of control [4]: 86%

% of control ([5]; at 1 µM): 90%
% of control ([5]; at 5 µM): 67%
SMILES: C=CC(=O)Nc1cccc(C(=O)Nc2ccc(Nc3cc(-c4[nH]c(SC)nc4C)ccn3)cc2)c1

SMILES: CN(C)C/C=C/C(=O)Nc1ccc(C(=O)N2CCCC(Nc3ncc(Cl)c(-c4c[nH]c5ccccc45)n3)C2)cc1 (configuration not stated)
% of control [6]: 93%
% of control [7]: 38%

SMILES: CN(C)CCOc1ccc(-c2nc(-c3ccncc3)c(-c3ccc4c(c3)CC/C4=N\O)[nH]2)cc1
% of control [8]: 100%

SMILES: C=CC(=O)Nc1ccc(C(=O)Nc2[nH]nc3c2CN(C(=O)N[C@H](CN(C)C)c2ccccc2)C3(C)C)cc1
% of engagement [9]: -4.8%

SMILES: Cc1cc([C@@H](C)Nc2ccccc2C(=O)O)c2nc(N3CCOCC3)cc(=O)n2c1 [AZD-6482]
% of control [10]: 100%

SMILES: O[C@H]1CC[C@H](Nc2ncc3nc(Nc4c(F)cc(F)cc4F)n([C@H]4CCOC4)c3n2)CC1
% of control [11]: 95%
